According to patent EP0137426A2, “2-Mercaptothiazole derivatives, process for their preparation and utilization of 2-mercaptothiazole derivatives in pharmaceutical compounds” (BAYER AG, priority 1983, dated 1985):

Tests used:
TXA2 [1] = assay: Inhibition of thromboxane-induced isometric contraction of rabbit aortic strips (TXA2 generated from washed human platelets); format: cell-based, Kaninchen; details: Oryctolagus cuniculus, Platelet, thromboxane-induced vessel contraction, read-out: Hemmung (%) (x̄ ± SEM); for inhibition at 30 µg/mL: Konzentration 3 x 10^-5 g/ml
Method: Gefäßkonstriktorische Wirkung
Die gefäßkonstriktorische Wirkung von Thromboxan wird mit Hilfe der isometrischen Kontraktion von Kaninchenaortenstreifen gemessen (Furchtgott, R. F; Bhadrakom, S. J., Pharmacol. Exp. Ther. 108, 129 - 143, 1953). Männliche Kaninchen (Russen, Gewicht 1,8 - 2 kg) werden mit Pento- -barbital getötet. Die Brustaorta wird entnommen und spiral--förmig aufgeschnitten. Die Streifen (Breite 2 - 3 mm, Länge 3 cm) werden unter einer Spannung von 2 g in 10 ml - Organbädern, die Carbogen durchperlten Krebs-Henseleit-Puffer von 37°C enthalten, suspendiert. Zur Erhöhung der Spezifität der Methode enthält der Puffer folgende Inhibitoren (jeweils 100 µg/l): Propanololhydrochlorid, Phentolamin, Cyproheptadin, Atropin, Mebhydrolin und Indometacin. Die Kontraktionen werden nach Erreichen eines konstanten Basaltonus durch TXA2, generiert aus gewaschenen Human-Thrombozyten, ausgelöst.
Zur Präparation der Thrombozytensuspension wird Humanblut in 1 %iger EDTA-Lösung aufgenommen und bei 150 G 20 Minuten lang zentrifugiert. Das plättchenreiche Plasma wird abgehebert und bei 750 G für 20 Minuten zentrifugiert. Das plättchenarme Plasma wird abdekantiert und die verbleibenden Plättchen in Puffer (0,15 M NaCl, 0,15 M Tris/ HC1 pH 7.4, 77 mM EDTA; 90 : 8 : 2) aufgenommen.
Die Thromboxan-Generation erfolgt durch Stimulation der Plättchen mit Thrombin bei 37°C unter Rühren. Nach 30 sec wird die Plättchensuspension zu dem mit Prüfsubstanz bzw. Lösungsmittel vorbehandelten Aortenstreifen gegeben und damit die Kontraktionen ausgelöst. Die prozentuale Hemmung errechnet sich aus den entsprechenden Ausschlägen.
An den in der folgenden Tabelle 1 genannten Verbindungen wurde die spezifische Hemmung der durch Thromboxan induzierten Gefäßkontraktionen bestimmt.

TXA2 [2] = details: literature: Tanaka, Harada, Katori, Prostaglandins 17, 235, 1979; cited from earlier work
Thrombozyten = assay: Inhibition of collagen-induced platelet aggregation in platelet-rich plasma (turbidimetric, Born); format: cell-based; details: Homo sapiens, Konzentration 3 x 10^-5 g/ml, PRP, 37°C, read-out: Hemmung (%) (x̄ ± SEM)
Method: Thrombocytenaggregationshemmung
Für die Bestimmung der thrombocytenaggregationshemmenden Wirkung wird Blut von gesunden Spendern, die mindestens 14 Tage lang kein Medikament eingenommen hatten, verwendet. Das Blut wird in 3.8 %iger Natriumcitratlösung aufgenommen. Plättchenreiches Plasma (PRP) wird durch 20 min. lange Zentrifugation bei 150 G bei Raumtemperatur gewonnen (Jürgens/Beller: Klinische Methoden der Blutgerinnungsanalyse; Thieme-Verlag, Stuttgart 1959). Die Plättchenaggregation wird nach der turbidometrischen Methode (Born, G. V. R.: J. Physiol. 162 67, 1962) im Aggregometer bei 37°C bestimmt. Hierzu wird PRP mit Prüfsubstanz bei 37°C inkubiert und anschließend die Aggregation durch Zugabe einer Kollagensuspension ausgelöst. Die prozentuale Hemmung errechnet sich aus den entsprechenden Ausschlägen.
An den in der folgenden Tabelle 2 genannten Verbindungen wurde die Hemmung der Kollagen-induzierten Thrombozytenaggregation untersucht.

SMILES	inhibition at 30 µg/mL (TXA2 [1]) [%]	inhibition at 30 µg/mL (Thrombozyten) [%]	further results
O=C(O)CCCSc1nc2cc(F)c(F)cc2s1 [Beispiel 11a]	82 ± 1		
O=C(O)CCCCSc1nc(Cl)c(Cl)s1 [Beispiel 23]	47 ± 10		
CCOC(=O)c1c(C)cc2c(CO)n[nH]c(=O)c2c1C [Phthalazinol]			Wirkung als spezifischer TXA2-Antagonist (TXA2 [2]): nicht als spezifischer TXA2-Antagonist
O=C(O)CCCCSc1nc2ccccc2s1 [Beispiel 25]	31 ± 18		
O=C(O)CCCSc1nc2ccccc2s1 [Beispiel 9]	84 ± 3	52	inhibition at 100 µg/mL (TXA2 [1]; Konzentration 1 x 10^-4 g/ml): 100%; inhibition at 10 µg/mL (TXA2 [1]; Konzentration 1 x 10^-5 g/ml): 58 ± 7%; inhibition at 1 µg/mL (TXA2 [1]; Konzentration 1 x 10^-6 g/ml): 16 ± 7%; inhibition at 3 µg/mL (TXA2 [1]; Konzentration 3 x 10^-6 g/ml): 34 ± 6%
O=C(O)CCCSc1nc(Cl)c(Cl)s1 [Beispiel 21]	59 ± 6	69	
